Results published in ChEMBL document CHEMBL4400569, “The discovery of quinoline-3-carboxamides as hematopoietic prostaglandin D synthase (H-PGDS) inhibitors” (Bioorg Med Chem, 2019).
Converted amounts (≈) assume the structure as drawn. Each block holds one compound with its values, some of them ahead of it.

How the values were obtained:
[1] = Stability in human whole blood assessed as amidase-mediated carboxylic acid formation by measuring parent compound remaining measured after 1 hr; assay type: ADME, tissue-based
[2] = Apparent permeability of the compound at 2.5 uL at pH 7.4 incubated for 3 hrs under shaking condition by PAMPA; assay type: ADME
[3] = species: Mus musculus; assay: animal or person; details: C57BL/6J, po
[4] = Half life in mouse liver microsomes at 0.5 mM preincubated for 5 mins followed by NADP addition and measured after LC-MS/MS analysis; assay type: ADME, Microsome
[5] = Dose normalized AUC in po dosed mouse; assay type: ADME, organism-based; details: in vivo
[6] = Terminal half life in mouse; assay type: ADME, organism-based; details: in vivo
[7] = Solubility of the compound in FaSSIF by HPLC analysis; assay type: physicochemical
[8] = Volume of distribution at steady state in mouse; assay type: ADME, organism-based; details: in vivo, read-out: Vdss
[9] = Clearance in iv dosed mouse; assay type: ADME, organism-based; details: in vivo
[10] = Oral bioavailability in mouse; assay type: ADME, organism-based; details: in vivo

Stability [1]: 100%
Structure (SMILES): COc1ccc2cc(C(=O)N[C@H]3CCNC3=O)cnc2c1

Papp at 3 h [2]: 24 ×10⁻⁶ cm/s | half-life [4]: > 3 h | AUC/dose [5]: 1800 ng·h/mL per mg/kg | beta t1/2 [6]: 3.8 h
Structure (SMILES): CC(C)(O)[C@H]1CC[C@H](NC(=O)c2cnc3cc(OC(F)F)ccc3c2)CC1
ED50 [3]: 0.032 mg/kg

half-life [4]: 0.633 h
Structure (SMILES): COc1ccc2cc(C(=O)N[C@H]3CC[C@H](C(C)(C)O)CC3)cnc2c1

Stability [1]: 1%
Structure (SMILES): COc1ccc2cc(C(=O)NC(C)(C)C)cnc2c1

solubility [7]: 16 µg/mL (≈ 40.4 µM) | Papp at 3 h [2]: 47 ×10⁻⁶ cm/s | Vd [8]: 2.5 L/kg | clearance [9]: 3.8 mL/min/kg | bioavailability [10]: 46% | half-life [4]: > 3 h | AUC/dose [5]: 1900 ng·h/mL per mg/kg | half-life [6]: 7.9 h
Structure (SMILES): CC(C)(O)[C@H]1CC[C@H](NC(=O)c2cnc3cc(OC(F)(F)F)ccc3c2)CC1

Stability [1]: 93%
Structure (SMILES): COc1ccc2cc(C(=O)Nc3cc[nH]n3)cnc2c1

Stability [1]: 63%
Structure (SMILES): COc1ccc2cc(C(=O)Nc3cn[nH]c3)cnc2c1
